Laboratory results published in ChEMBL document CHEMBL3832761, “MMV Pathogen Box Bioactivity Data” (2017).
Values after ≈ are worked out from the molar mass of the structure shown. Active and inactive are the calls of the source. The rule behind the calls is not given here.

Assays:
[1] = tested on: Mycobacterium tuberculosis; test: AntiMycobacterium tuberculosis activity 1-week 7H9/DPPC/cholesterol/BSA/Tx MIC (uM); type: functional; conditions: 168 h
[2] = tested on: Mycobacterium tuberculosis; test: AntiMycobacterium tuberculosis activity Replicating form: Average MIC90 (uM); type: functional
[3] = tested on: Mycobacterium tuberculosis; test: AntiMycobacterium tuberculosis activity day 21 MIC99 in 7H9/2.5mM butyrate/pH6/0.1mM nitrite MIC99 (uM); type: functional; conditions: 504 h
[4] = tested on: Mycobacterium tuberculosis; test: AntiMycobacterium tuberculosis activity 2-week Alamar Blue 7H9/ADC/Tw MIC (uM); type: functional; conditions: 336 h
[5] = tested on: Mycobacterium tuberculosis; test: AntiMycobacterium tuberculosis activity 2-week 7H9/DPPC/cholesterol/BSA/Tx MIC (uM); type: functional; conditions: 336 h
[6] = tested on: Mycobacterium tuberculosis; test: AntiMycobacterium tuberculosis activity Non-Replicating form: Average MIC90 (uM); type: functional
[7] = tested on: Mycobacterium tuberculosis; test: (§1) AntiMycobacterium tuberculosis activity day 10 in 7H9/2.5mM butyrate/pH6/0.1mM nitrite MIC90 (uM); type: functional; conditions: 240 h
[8] = tested on: HepG2; test: HepG2 CC50 (uM) Cytotoxicity; type: functional; conditions: Homo sapiens
[9] = tested on: Mycobacterium tuberculosis; test: AntiMycobacterium tuberculosis activity 1-week GAST/Fe MIC (uM); type: functional; conditions: 168 h
[10] = tested on: Mycobacterium tuberculosis; test: as §1; type: functional; conditions: 240 h; remark: listed apart in the source
[11] = tested on: Mycobacterium tuberculosis; test: AntiMycobacterium tuberculosis activity 2-week 7H9/glucose/BSA/Tx MIC (uM); type: functional; conditions: 336 h
[12] = tested on: Mycobacterium tuberculosis; test: AntiMycobacterium tuberculosis activity 2-week Alamar Blue 7H9/cholesterol/BSA/Tx MIC (uM); type: functional; conditions: 336 h
[13] = tested on: Mycobacterium tuberculosis; test: AntiMycobacterium tuberculosis activity 1-week 7H9/cholesterol/BSA/Tx MIC (uM); type: functional; conditions: 168 h
[14] = tested on: Mycobacterium tuberculosis; test: AntiMycobacterium tuberculosis activity 1-week 7H9/glucose/BSA/Tx MIC (uM); type: functional; conditions: 168 h
[15] = tested on: Mycobacterium tuberculosis; test: AntiMycobacterium tuberculosis activity day 21 in 7H9/2.5mM butyrate/pH6/0.1mM nitrite MIC90 (uM); type: functional; conditions: 504 h
[16] = tested on: Mycobacterium tuberculosis; test: AntiMycobacterium tuberculosis activity 2-week 7H9/ADC/Tw MIC (uM); type: functional; conditions: 336 h
[17] = tested on: Mycobacterium tuberculosis; test: AntiMycobacterium tuberculosis activity 1-week 7H9/ADC/Tw MIC (uM); type: functional; conditions: 168 h
[18] = tested on: Mycobacterium tuberculosis; test: AntiMycobacterium tuberculosis activity 2-week GAST/Fe MIC (uM); type: functional; conditions: 336 h
[19] = tested on: HepG2; test: Cytotoxicity data HepG2 CC20 (uM); type: functional
[20] = tested on: Plasmodium falciparum; test: Antimalarial activity: Asexual Blood Stage Plasmodium falciparum 3D7 IC50 (uM); type: functional, organism-based
[21] = tested on: Plasmodium falciparum; test: Antimalarial activity: Gametocytes Plasmodium falciparum NF54 Gametocytes Stage V: inhibition at 10 uM (%); type: functional
[22] = tested on: Plasmodium berghei; test: Antimalarial activity: Liver Stage Plasmodium berghei sporozoite Luciferase assay: inhibition at 10 uM (%); type: functional
[23] = tested on: Plasmodium falciparum; test: Antimalarial activity: Asexual Blood Stage Plasmodium falciparum W2 IC50 (uM); type: functional, organism-based

Compound | MIC [1] | MIC90 [2] | MIC [3] | MIC [4] | MIC [5] | MIC90 [6] | MIC90 [7] | CC50 [8] | MIC [9] | MIC90 [10] | MIC [11] | MIC [12] | MIC [13] | MIC [14] | MIC90 [15] | MIC [16] | MIC [17] | MIC [18] | other results
NCC(c1cccs1)S(=O)(=O)c1ccccc1 (stereo not drawn) | 50 µM (≈ 13.4 µg/mL) | 20.7 µM (≈ 5.52 µg/mL) | > 50 µM | 25 µM (≈ 6.68 µg/mL) | 50 µM (≈ 13.4 µg/mL) | 19.6 µM (≈ 5.24 µg/mL) | 25 µM (≈ 6.68 µg/mL) | 35.4 µM | 1.56 µM (≈ 0.417 µg/mL) | > 50 µM | 25 µM (≈ 6.68 µg/mL) | 50 µM (≈ 13.4 µg/mL) | 50 µM (≈ 13.4 µg/mL) | 25 µM (≈ 6.68 µg/mL) | 25 µM (≈ 6.68 µg/mL) | 25 µM (≈ 6.68 µg/mL) | 19 µM (≈ 5.08 µg/mL) | 2.3 µM (≈ 0.615 µg/mL) | –
CCC(Sc1nc2ccccc2o1)C(=O)Nc1nccs1 (stereo not drawn) | 9.4 µM (≈ 3 µg/mL) | 3.08 µM (≈ 0.984 µg/mL) | 6.25 µM (≈ 2 µg/mL) | 9.4 µM (≈ 3 µg/mL) | 12.5 µM (≈ 3.99 µg/mL) | 1.38 µM (≈ 0.441 µg/mL) | 6.25 µM (≈ 2 µg/mL) | 13 µM | 37 µM (≈ 11.8 µg/mL) | 12.5 µM (≈ 3.99 µg/mL) | 12.5 µM (≈ 3.99 µg/mL) | 12.5 µM (≈ 3.99 µg/mL) | 12.5 µM (≈ 3.99 µg/mL) | 9.4 µM (≈ 3 µg/mL) | 6.25 µM (≈ 2 µg/mL) | 9.4 µM (≈ 3 µg/mL) | 9.4 µM (≈ 3 µg/mL) | 37 µM (≈ 11.8 µg/mL) | –
CCCc1ccc(S(=O)(=O)Nc2ccc(CN3CCN(CC4CC4)CC3)cc2)cc1 | 4.7 µM (≈ 2.01 µg/mL) | 18.7 µM (≈ 8.01 µg/mL) | > 50 µM | 19 µM (≈ 8.12 µg/mL) | 6.25 µM (≈ 2.67 µg/mL) | 47.4 µM (≈ 20.3 µg/mL) | 50 µM (≈ 21.4 µg/mL) | 17.7 µM | 12.5 µM (≈ 5.35 µg/mL) | > 50 µM | 9.4 µM (≈ 4.02 µg/mL) | 6.25 µM (≈ 2.67 µg/mL) | 6.25 µM (≈ 2.67 µg/mL) | 9.4 µM (≈ 4.02 µg/mL) | 50 µM (≈ 21.4 µg/mL) | 19 µM (≈ 8.12 µg/mL) | 19 µM (≈ 8.12 µg/mL) | 12.5 µM (≈ 5.35 µg/mL) | –
O=C(NCc1cc(Cl)cc(Cl)c1)c1c(C(F)(F)F)nc2ccccn12 | 4.7 µM (≈ 1.82 µg/mL) | > 100 µM | > 50 µM | 12.5 µM (≈ 4.85 µg/mL) | 12.5 µM (≈ 4.85 µg/mL) | 2.93 µM (≈ 1.14 µg/mL) | 1.5 µM (≈ 0.582 µg/mL) | 38.3 µM | 0.1 µM (≈ 0.0388 µg/mL) | > 50 µM | > 50 µM | 1.2 µM (≈ 0.466 µg/mL) | 2.3 µM (≈ 0.893 µg/mL) | > 50 µM | 12.5 µM (≈ 4.85 µg/mL) | 37 µM (≈ 14.4 µg/mL) | 12.5 µM (≈ 4.85 µg/mL) | 0.39 µM (≈ 0.151 µg/mL) | –
CCCn1nnc(NC(=O)COc2ccc(C3CCCCC3)cc2)n1 | 19 µM (≈ 6.53 µg/mL) | 40.1 µM (≈ 13.8 µg/mL) | 50 µM (≈ 17.2 µg/mL) | 37 µM (≈ 12.7 µg/mL) | 37 µM (≈ 12.7 µg/mL) | 98.5 µM (≈ 33.8 µg/mL) | 25 µM (≈ 8.59 µg/mL) | > 100 µM | 6.25 µM (≈ 2.15 µg/mL) | 50 µM (≈ 17.2 µg/mL) | 37 µM (≈ 12.7 µg/mL) | 25 µM (≈ 8.59 µg/mL) | 6.25 µM (≈ 2.15 µg/mL) | 19 µM (≈ 6.53 µg/mL) | 50 µM (≈ 17.2 µg/mL) | 37 µM (≈ 12.7 µg/mL) | 19 µM (≈ 6.53 µg/mL) | 12.5 µM (≈ 4.29 µg/mL) | –
Nc1ncnc2c1ncn2C[C@@H](O)[C@@H](O)C(=O)O [ERITADENINE] | – | – | – | – | – | – | – | – | – | – | – | – | – | – | – | – | – | – | CC20 [19]: >80 µM
O=C(COc1cccc(F)c1)Nc1nc(-c2ccccn2)cs1 | 19 µM (≈ 6.26 µg/mL) | 84.4 µM (≈ 27.8 µg/mL) | > 50 µM | 50 µM (≈ 16.5 µg/mL) | 50 µM (≈ 16.5 µg/mL) | 27.5 µM (≈ 9.07 µg/mL) | 12.5 µM (≈ 4.12 µg/mL) | – | 1.2 µM (≈ 0.395 µg/mL) | > 50 µM | 37 µM (≈ 12.2 µg/mL) | 37 µM (≈ 12.2 µg/mL) | 19 µM (≈ 6.26 µg/mL) | 19 µM (≈ 6.26 µg/mL) | 25 µM (≈ 8.23 µg/mL) | 50 µM (≈ 16.5 µg/mL) | 37 µM (≈ 12.2 µg/mL) | 2.3 µM (≈ 0.758 µg/mL) | –
O=C(C1CCN(c2nnnn2-c2ccccc2)CC1)N1CCc2ccccc2C1 | – | – | – | – | – | – | – | – | – | – | – | – | – | – | – | – | – | – | CC20 [19]: >80 µM; inhibition [20]: inactive
COc1ccc(-c2cc(NC(=O)c3ccc(F)cc3Cl)ccc2OC)cc1 | – | – | – | 50 µM (≈ 19.3 µg/mL) | – | 67.7 µM (≈ 26.1 µg/mL) | – | > 100 µM | 3.13 µM (≈ 1.21 µg/mL) | – | – | – | 25 µM (≈ 9.65 µg/mL) | – | – | – | – | 19 µM (≈ 7.33 µg/mL) | –
O=C(NCCN1CCCC1)c1cc(NCCCCN2CCC(F)(F)CC2)nc2ccc(Cl)cc12 | – | – | – | – | – | – | – | – | – | – | – | – | – | – | – | – | – | – | inhibition [21]: Series known to be active; inhibition [22]: Series known to be active; IC50 [20]: 0.01 µM
Cc1cc(Nc2ccc(C(F)(F)F)cc2)n2ccnc2n1 | – | – | – | – | – | – | – | – | – | – | – | – | – | – | – | – | – | – | inhibition [21]: Series known to be inactive; inhibition [22]: Series known to be active; IC50 [20]: 0.38 µM; IC50 [23]: 0.36 µM
